Measurements taken from ChEMBL document CHEMBL4825690, “Synthesis and biological evaluation of chalcone-polyamine conjugates as novel vectorized agents in colorectal and prostate cancer chemotherapy” (Eur J Med Chem, 2021).
Calls of active or inactive are those of the source. The rule behind the calls is not given here.

Experiments:
HCT-116 [1] = assay: Antiproliferative activity against human HCT116 cells assessed as reduction in cell viability incubated for 48 hr by MTT assay; format: functional, cell-based; settings: HCT-116, 48 h
HT-29 [2] = assay: Induction of cell cycle arrest in human HT-29 cells assessed as accumulation at sub-G1 phase at IC50 incubated for 48 hrs by RNaeA/propidium iodide based flow cytometry analysis (reference value: 0.12 %); format: functional
HT-29 [3] = assay: Induction of cell cycle arrest in human HT-29 cells assessed as accumulation at G1 phase at IC50 incubated for 48 hrs by RNaeA/propidium iodide based flow cytometry analysis (reference value: 54.39 %); format: functional
HT-29 [4] = assay: Induction of cell cycle arrest in human HT-29 cells assessed as accumulation at S phase at IC50 incubated for 48 hrs by RNaeA/propidium iodide based flow cytometry analysis (reference value: 32.45 %); format: functional
HCT-116 [5] = assay: Induction of cell cycle arrest in human HCT-116 cells assessed as accumulation at sub-G1 phase at IC50 incubated for 48 hrs by RNaeA/propidium iodide based flow cytometry analysis (reference value: 0.67 %); format: functional
HCT-116 [6] = assay: Induction of cell cycle arrest in human HCT-116 cells assessed as accumulation at G1 phase at IC50 incubated for 48 hrs by RNaeA/propidium iodide based flow cytometry analysis (reference value: 51.56 %); format: functional
HCT-116 [7] = assay: Induction of cell cycle arrest in human HCT-116 cells assessed as accumulation at G2 phase at IC50 incubated for 48 hrs by RNaeA/propidium iodide based flow cytometry analysis (reference value: 17.76 %); format: functional
PC-3 [8] = assay: Induction of cell cycle arrest in human PC3 cells assessed as accumulation at G1 phase at IC50 incubated for 48 hrs by RNaeA/propidium iodide based flow cytometry analysis (reference value: 42.61 %); format: functional
PC-3 [9] = assay: Induction of cell cycle arrest in human PC3 cells assessed as accumulation at S phase at IC50 incubated for 48 hrs by RNaeA/propidium iodide based flow cytometry analysis (reference value: 33.66 %); format: functional
PC-3 [10] = assay: Induction of cell cycle arrest in human PC3 cells assessed as accumulation at G2 phase at IC50 incubated for 48 hrs by RNaeA/propidium iodide based flow cytometry analysis (reference value: 23.73 %); format: functional
DU-145 [11] = assay: Induction of cell cycle arrest in human DU-145 cells assessed as accumulation at sub-G1 phase at IC50 incubated for 48 hrs by RNaeA/propidium iodide based flow cytometry analysis (reference value: 0 %); format: functional
HT-29 [12] = assay: Induction of cell cycle arrest at G1 phase in human HT-29 cells assessed as reduction in CDK6 expression by Western blot analysis; format: functional, cell-based
HT-29 [13] = assay: Induction of cell cycle arrest at G1 phase in human HT-29 cells assessed as reduction in CDK2 expression by Western blot analysis; format: functional, cell-based
HT-29 [14] = assay: Induction of cell cycle arrest at G1 phase in human HT-29 cells assessed as reduction in Cyclin E2 expression by Western blot analysis; format: functional, cell-based
HCT-116 [15] = assay: Induction of cell cycle arrest in human HCT-116 cells assessed as increase in Cyclin E2 expression by Western blot analysis; format: functional, cell-based
PC-3 [16] = assay: Induction of cell cycle arrest in human PC-3 cells assessed as decrease in cyclin B1 expression by Western blot analysis; format: functional, cell-based
PC-3 [17] = assay: Induction of cell cycle arrest in human PC-3 cells assessed as decrease in Cdc2 expression by Western blot analysis; format: functional, cell-based
DU-145 [18] = assay: Induction of cell cycle arrest in human DU-145 cells assessed as effect on cyclin B1 expression by Western blot analysis; format: functional, cell-based
DU-145 [19] = assay: Induction of cell cycle arrest in human DU-145 cells assessed as effect on Cdc2 expression by Western blot analysis; format: functional, cell-based
DU-145 [20] = assay: Induction of cell cycle arrest in human DU-145 cells assessed as increase in p21 expression by Western blot analysis; format: functional, cell-based
HT-29 [21] = assay: Induction of apoptosis in human HT-29 cells assessed as viable cells incubated for 48 hrs by annexin-V/FITC and propidium iodide staining based flow cytometry analysis (reference value: 83.56 %); format: functional
HT-29 [22] = assay: Induction of apoptosis in human HT-29 cells assessed as early apoptotic cells incubated for 48 hrs by annexin-V/FITC and propidium iodide staining based flow cytometry analysis (reference value: 3.37%); format: functional
HCT-116 [23] = assay: Induction of apoptosis in human HCT-116 cells assessed as viable cells incubated for 48 hrs by annexin-V/FITC and propidium iodide staining based flow cytometry analysis (reference value: […] %); format: functional
HCT-116 [24] = assay: Induction of apoptosis in human HCT-116 cells assessed as early apoptotic cells incubated for 48 hrs by annexin-V/FITC and propidium iodide staining based flow cytometry analysis (reference value: 5.21 %); format: functional
PC-3 [25] = assay: Induction of apoptosis in human PC-3 cells assessed as viable cells incubated for 48 hrs by annexin-V/FITC and propidium iodide staining based flow cytometry analysis (reference value: 92.95 %); format: functional
PC-3 [26] = assay: Induction of apoptosis in human PC-3 cells assessed as late apoptotic cells incubated for 48 hrs by annexin-V/FITC and propidium iodide staining based flow cytometry analysis (reference value: 2.13 %); format: functional
PC-3 [27] = assay: Induction of apoptosis in human PC-3 cells assessed as necrotic cells incubated for 48 hrs by annexin-V/FITC and propidium iodide staining based flow cytometry analysis (reference value: 0.54 %); format: functional
DU-145 [28] = assay: Induction of apoptosis in human DU-145 cells assessed as viable cells incubated for 48 hrs by annexin-V/FITC and propidium iodide staining based flow cytometry analysis (reference value: 94.13 %); format: functional
DU-145 [29] = assay: Induction of apoptosis in human DU-145 cells assessed as late apoptotic cells incubated for 48 hrs by annexin-V/FITC and propidium iodide staining based flow cytometry analysis (reference value: 2.56 %); format: functional
PC-3 [30] = assay: Induction of apoptosis in human PC-3 cells assessed as decrease in pro-caspase-3 expression by Western blot assay; format: functional, cell-based
DU-145 [31] = assay: Induction of apoptosis in human DU-145 cells assessed as decrease in pro-caspase-3 expression by Western blot assay; format: functional, cell-based
DU-145 [32] = assay: Induction of apoptosis in human DU-145 cells assessed as increase in caspase-3 level by Western blot assay; format: functional, cell-based
DU-145 [33] = assay: Induction of apoptosis in human DU-145 cells assessed as increase in cleaved PARP protein expression by Western blot assay; format: functional, cell-based
HCT-116 [34] = assay: Induction of apoptosis in human HCT-116 cells assessed as decrease in PARP protein expression by Western blot assay; format: functional, cell-based
HT-29 [35] = assay: Induction of apoptosis in human HT-29 cells assessed as increase in DNA fragmentation after 48 hrs by ELISA relative to control; format: functional
HCT-116 [36] = assay: Induction of apoptosis in human HCT-116 cells assessed as increase in DNA fragmentation after 48 hrs by ELISA relative to control; format: functional
PC-3 [37] = assay: Induction of apoptosis in human PC-3 cells assessed as increase in DNA fragmentation after 48 hrs by ELISA relative to control; format: functional
Tubulin (Homo sapiens) = Tubulin (Homo sapiens) (UniProt P68371+Q9H4B7+P0DPH7+P68366+Q13509+Q71U36+P04350+Q3ZCM7+P07437+P68363+Q9BQE3+Q6PEY2+Q13885+Q9BVA1+Q9BUF5); assay: Inhibition of tubulin polymerization in human HeLa cells measured after 2 hrs by fluorescent immunostaining method; format: cell-based

IC50 (HCT-116 [1]): 8.13 µM
inhibition (Tubulin (Homo sapiens)): inactive
SMILES: COc1cc(C(=O)/C=C/c2ccc(OCCCNCCCNCCCCN)cc2)cc(OC)c1OC
Activity (HT-29 [2]): 7.07%
Activity (HT-29 [3]): 60.65%
Activity (HT-29 [4]): 26.03%
Activity (HCT-116 [5]): 24.17%
Activity (HCT-116 [6]): 65.67%
Activity (HCT-116 [7]): 19.93%
Activity (PC-3 [8]): 19.12%
Activity (PC-3 [9]): 22.17%
Activity (PC-3 [10]): 58.17%
Activity (DU-145 [11]): 9.28%
Activity (HT-29 [12]): Active
Activity (HT-29 [13]): Active
Activity (HT-29 [14]): Active
Activity (HCT-116 [15]): Active
Activity (PC-3 [16]): Active
Activity (PC-3 [17]): Active
Activity (DU-145 [18]): inactive
Activity (DU-145 [19]): inactive
Activity (DU-145 [20]): Active
Activity (HT-29 [21]): 56.67%
Activity (HT-29 [22]): 11.04%
Activity (HCT-116 [23]): 52.13%
Activity (HCT-116 [24]): 22.92%
Activity (PC-3 [25]): 50.47%
Activity (PC-3 [26]): 12.65%
Activity (PC-3 [27]): 2.63%
Activity (DU-145 [28]): 38.96%
Activity (DU-145 [29]): 8.74%
Activity (PC-3 [30]): Active
Activity (DU-145 [31]): Active
Activity (DU-145 [32]): Active
Activity (DU-145 [33]): Active
Activity (HCT-116 [34]): Active
fold change (FC) (HT-29 [35]): 2.07
fold change (FC) (HCT-116 [36]): 4.72
fold change (FC) (PC-3 [37]): 6.53
